# Several values for one entry are separate records, joined by “and”; a condition that tells them apart may be missing. Equal values may be shown once.
# Test system: CaNT allograft
# Assay: Ex vivo biodistribution in CaNT allograft bearing CBA/Carl mice
# Settings: for Ex vivo biodistribution Blood / Ex vivo biodistribution Bone / Ex vivo biodistribution Brain / Ex vivo biodistribution Caecum / Ex vivo biodistribution Fat / Ex vivo biodistribution Gallbladder / Ex vivo biodistribution Heart / Ex vivo biodistribution Kidney / Ex vivo biodistribution Large intestine / Ex vivo biodistribution Liver / Ex vivo biodistribution Lung / Ex vivo biodistribution Muscle / Ex vivo biodistribution Pancreas / Ex vivo biodistribution Skin / Ex vivo biodistribution Spleen / Ex vivo biodistribution Stomach / Ex vivo biodistribution Tumour: CaNT allograft mice, 1 h p.i.; for tumour uptake (group mean): CaNT tumours
# Procedure: All animal procedures were performed in accordance with the UK Animals (Scientific Procedures) Act 1986 and with local ethical committee approval. Animals were housed in IVC cages in sex-matched groups up to 5 per cage, in an artificial day-night cycle facility, with ad libitum access to food and water. Tumour xenografts or allografts were generated by subcutaneous injection of PANC-1 or Capan-1 cell suspensions in the hind flank of balb/c nu/nu animals. CaNT xenografts were generated by harvesting CaNT tumours from donor animals, and injecting a tumour homogenate subcutaneously in the flank of wild type CBA/Carl mice. Tumours were irradiated (10 Gy, 2 Gy/min) using a 300 kV X-ray device.
# Dynamic PET/CT images were acquired following an intravenous bolus administration of [^18F]-olaparib. Biodistribution studies, where selected tissues were harvested, were performed 1 h post injection. Some animals were also administered an excess of cold, unlabelled olaparib for evaluating the specificity of tumour uptake. EF5, a hypoxia-selective marker, was injected 2 h before culling of the animal. Digital autoradiography was performed on tumour sections. Image analysis was performed using PMOD.
# The murine adenocarcinoma NT (CaNT) was implanted subcutaneously onto the right thigh of 6-7 week-old female CBA/Carl mice. Fifty μL of a crude cell suspension, prepared by mechanical dissociation of an excised tumor from a donor animal, was injected. Tumors were selected for imaging when the geometric mean diameter reached 6-8 mm (volumes calculated as above), approximately 3 weeks after implantation (Kersemans, V., et al. Hypoxia imaging using PET and SPECT: the effects of anesthetic and carrier gas on [Cu]-ATSM, [Tc]-HL91 and [F]-FMISO tumor hypoxia accumulation. PloS one 6, e25911, 2011).
# Two hours prior to PET/CT imaging, animals were exposed to X-irradiation of the tumour (10 Gy or sham) (see schedule in FIG. 13). Radiation was delivered using a Gulmay 320 kV X-irradiator; 2.0 Gy/min. Anaesthesia was maintained at 2.5% isoflurane throughout the duration of the irradiation, and animals were allowed to recover. To study the relationship of PARP1 expression, ^18F-olaparib uptake and hypoxia, animals were administered 0.6 μg in 200 μL (0.9% saline) intraperitoneally, one hour prior to PET/CT imaging. Naïve CBA/Carl mice, not bearing tumours, were not irradiated, nor was EF5 administered.
# Dynamic PET/CT images were acquired using a VECTor ^4CT integrated PET/CT system. Mice were anaesthetised by 4% isoflurane gas (0.5 L/min O2) and placed on a custom-built imaging cradle in a prone position. Animals mice were intravenously injected with [^18F]-olaparib or (3-5 MBq, 8-11 GBq/μmol, through a tail vein catheter, and dynamic imaging was performed over 45-60 min after radiolabelled compound administration. PET acquisition (150 s per frame, using list mode acquisition) using an ultra-high resolution rat/mouse 1.8 mm collimator, followed by a cone-beam CT scan (55 kV, 0.19 mA) for anatomical reference and attenuation correction. Anaesthesia was maintained at 2.5% isoflurane throughout the duration of the image acquisition. PET images were reconstructed using U-SPECT-Rec3.22 software (MILabs, Utrecht, The Netherlands), applying a pixel-based algorithm with 8 subsets, 6 iterations and 0.8 mm voxel size for ^18F (energy window settings 477.9-584.1 keV).
# After PET/CT image acquisition, animals were euthanized by cervical dislocation and selected organs, tissues and blood were removed. The amount of radioactivity in each organ was measured using a 2480 WIZARD^2 gamma counter (PerkinElmer). Counts per minute were converted into MBq using a calibration curve generated from known standards. Values were decay-corrected to the time of injection, and the percentage of the injected dose per gram (% ID/g) of each tissue was calculated.
# [1] = + IR (10 Gy), individual animals
# [2] = + block (excess cold olaparib), individual animal
# [3] = tracer alone, individual animals
smiles,measurement,setting,value
O=C(c1cc(Cc2n[nH]c(=O)c3ccccc23)ccc1[18F])N1CCN(C(=O)C2CC2)CC1 [[^18F]olaparib],Ex vivo biodistribution Blood,[1],9.79 % ID/g and 3.12 % ID/g
same,Ex vivo biodistribution Bone,[1],15.7 % ID/g and 11.5 % ID/g
same,Ex vivo biodistribution Brain,[1],0.20 % ID/g and 0.25 % ID/g
same,Ex vivo biodistribution Caecum,[1],42.9 % ID/g and 44.6 % ID/g
same,Ex vivo biodistribution Fat,[1],2.52 % ID/g and 2.34 % ID/g
same,Ex vivo biodistribution Gallbladder,[1],155 % ID/g and 57.3 % ID/g
same,Ex vivo biodistribution Heart,[1],8.74 % ID/g and 7.03 % ID/g
same,Ex vivo biodistribution Kidney,[1],24.5 % ID/g and 19.0 % ID/g
same,Ex vivo biodistribution Large intestine,[1],60.1 % ID/g and 47.0 % ID/g
same,Ex vivo biodistribution Liver,[1],93.2 % ID/g and 100 % ID/g
same,Ex vivo biodistribution Lung,[1],10.9 % ID/g and 9.61 % ID/g
same,Ex vivo biodistribution Muscle,[1],5.45 % ID/g and 5.31 % ID/g
same,Ex vivo biodistribution Pancreas,[1],29.5 % ID/g and 23.6 % ID/g
same,Ex vivo biodistribution Skin,[1],5.02 % ID/g and 5.12 % ID/g
same,Ex vivo biodistribution Spleen,[1],69.0 % ID/g and 58.3 % ID/g
same,Ex vivo biodistribution Stomach,[1],9.40 % ID/g and 4.20 % ID/g
same,Ex vivo biodistribution Tumour,[1],1.43 % ID/g and 1.92 % ID/g
same,Ex vivo biodistribution Blood,[2],4.00 % ID/g
same,Ex vivo biodistribution Bone,[2],5.18 % ID/g
same,Ex vivo biodistribution Brain,[2],0.22 % ID/g
same,Ex vivo biodistribution Caecum,[2],101 % ID/g
same,Ex vivo biodistribution Fat,[2],1.57 % ID/g
same,Ex vivo biodistribution Gallbladder,[2],194 % ID/g
same,Ex vivo biodistribution Heart,[2],2.51 % ID/g
same,Ex vivo biodistribution Kidney,[2],8.45 % ID/g
same,Ex vivo biodistribution Large intestine,[2],61.2 % ID/g
same,Ex vivo biodistribution Liver,[2],74.3 % ID/g
same,Ex vivo biodistribution Lung,[2],2.29 % ID/g
same,Ex vivo biodistribution Muscle,[2],2.65 % ID/g
same,Ex vivo biodistribution Pancreas,[2],3.41 % ID/g
same,Ex vivo biodistribution Skin,[2],1.16 % ID/g
same,Ex vivo biodistribution Spleen,[2],2.41 % ID/g
same,Ex vivo biodistribution Stomach,[2],4.09 % ID/g
same,Ex vivo biodistribution Tumour,[2],0.98 % ID/g
same,Ex vivo biodistribution Blood,[3],1.78 % ID/g and 8.00 % ID/g
same,Ex vivo biodistribution Bone,[3],11.7 % ID/g and 10.2 % ID/g
same,Ex vivo biodistribution Brain,[3],0.29 % ID/g and 0.23 % ID/g
same,Ex vivo biodistribution Caecum,[3],32.5 % ID/g and 56.2 % ID/g
same,Ex vivo biodistribution Fat,[3],7.19 % ID/g and 1.12 % ID/g
same,Ex vivo biodistribution Gallbladder,[3],953 % ID/g and 126 % ID/g
same,Ex vivo biodistribution Heart,[3],7.34 % ID/g and 0.00 % ID/g
same,Ex vivo biodistribution Kidney,[3],23.9 % ID/g and 21.0 % ID/g
same,Ex vivo biodistribution Large intestine,[3],24.0 % ID/g and 47.8 % ID/g
same,Ex vivo biodistribution Liver,[3],84.6 % ID/g and 110 % ID/g
same,Ex vivo biodistribution Lung,[3],12.5 % ID/g and 9.73 % ID/g
same,Ex vivo biodistribution Muscle,[3],5.84 % ID/g and 4.63 % ID/g
same,Ex vivo biodistribution Pancreas,[3],15.1 % ID/g and 20.8 % ID/g
same,Ex vivo biodistribution Skin,[3],3.82 % ID/g and 4.65 % ID/g
same,Ex vivo biodistribution Spleen,[3],43.3 % ID/g and 47.0 % ID/g
same,Ex vivo biodistribution Stomach,[3],6.17 % ID/g and 12.8 % ID/g
same,Ex vivo biodistribution Tumour,[3],1.48 % ID/g and 2.83 % ID/g
same,tumour uptake (group mean),excess cold olaparib,0.80±0.19 % ID/g
same,tumour uptake (group mean),tracer alone,1.71±0.59 % ID/g
